Reference: patent US20240122932A1, “Methods of Treating B-Cell Malignancy Using Bcl-2 Inhibitor” (BeiGene Switzerland GmbH, priority 2021, published 2024)
“Also recorded” adds a separate entry of the source.

How the values were obtained:
[1] = test system: patients with R/R B-cell malignancies; assay: phase 1 clinical study: safety, tolerability, DLT, MTD; assay type: in vivo
Procedure: (§1) A phase 1 study (dose escalation and safety expansion) to determine safety, tolerability, maximum tolerated dose ([…]), and recommended phase 2 dose (RP2D) of Compound 1 in patients with R/R B-cell malignancies was conducted. (Table 6-1A).
Dose-escalation (Part 1) occurs in independent cohorts categorized by patient disease type. These cohorts are continued until a recommended Phase 2 dose (RP2D) is identified, which is then used in corresponding expansion cohorts (Part 2).
(§2) Part 1 Monotherapy Ramp-Up Schedule and Dose Finding • 1) Cohort 1A: Cohort 1A consists of patients with relapsed/refractory B-cell non-Hodgkin lymphoma (R/R B-cell NHL) excluding mantle cell lymphoma (MCL). These patients are expected to be at low risk of tumor lysis syndrome (low TLS risk), and are treated with a short ramp-up schedule reaching target dose on Day 3. Patients in this cohort receive escalating doses of Compound 1 monotherapy: 40 mg, 80 mg, 160 mg, 320 mg, and 640 mg (unless adjusted by Safety Monitoring Committee [SMC] recommendation). • 2) Cohort 1B is opened, when ≥1 tolerable dose level of Cohort 1A was determined. It consists of patients with low-tumor-burden R/R CLL/SLL. This cohort pursues dose finding, including evaluation of both ramp-up schedule and target dose. Patients increase the ramp-up dose weekly until the target dose for the cohort is reached. The ramp-up steps is 1 mg, 2 mg, 5 mg, 10 mg, 20 mg, 40 mg, 80 mg, 160 mg, 320 mg, and 640 mg (unless adjusted by SMC recommendation). […]. • 3) Cohort 1C: This Cohort consists of patients with high-tumor-burden R/R chronic lymphocytic leukemia/small lymphocytic lymphoma (R/R CLL/SLL). This cohort will not be dosed until the RP2D for Cohort 1B is established. The objective of this cohort is to confirm, in patients with high-tumor-burden CLL/SLL, the safety of the monotherapy ramp-up schedule and RP2D established in patients with low-tumor-burden CLL/SLL. • 4) Cohort 1D: This Cohort consists of patients with R/R MCL. This cohort will not be dosed until the RP2D for Cohort 1B is established. The objective of this cohort is to confirm, in patients with R/R MCL, the safety of the monotherapy ramp-up schedule and RP2D established in patients with low tumor-burden CLL/SLL. • Cohort 1D′: This Cohort consists of patients with R/R MCL. And, the target dosage are 160 and 320 mg. • 5) Cohort 1E: This Cohort consists of patients with R/R waldenstrom macroglobulinemia (R/R WM). This cohort will not be dosed until the RP2D for Cohort 1B is established. The objective of this cohort is to confirm, in patients with R/R WM, the safety of the monotherapy ramp-up schedule and RP2D established in patients with low tumor-burden CLL/SLL.
All dose cohorts would be reviewed by a safety monitoring committee (SMC) before opening subsequent dose levels or declaring an MTD/RP2D.
(§3) The study also includes dose escalation and expansion cohorts for the combination of Compound 1 and Bruton tyrosine kinase (BTK) inhibitor Zanubrutinib in patients with selected B-cell malignancy, such as CLL/SLL and mantle cell lymphoma (MCL). (Table 6-2A). Patients in the combination therapy cohorts receive Zanubrutinib 320 mg daily (160 mg twice a day [BID] or 320 mg once a day [QD]) beginning 8-12 weeks before Compound 1 is introduced. And, the corresponding dose-escalation and expansion are conducted in Part 3 and Part 4):
Dose finding is pursued in Patients with R/R CLL/SLL or R/R MCL who are Bel-2-inhibitor naive and have not progressed on a BTK inhibitor, including evaluation of ramp-up schedule and target dose of Compound 1 when used in combination with Zanubrutinib. The Compound 1 dose vary but the Zanubrutinib dose is fixed at 320 mg/day (160 mg twice daily or 320 mg once daily). The ramp-up dose increases weekly until the target dose for the cohort is reached. […]

[2] = test system: patients with R/R B-cell malignancies; assay: phase 1 clinical study: efficacy (response, ALC, SPD); assay type: in vivo, human
Procedure: as §1, §2, §3
Dose finding is pursued in Patients with R/R CLL/SLL or R/R MCL who are Bel-2-inhibitor naive and have not progressed on a BTK inhibitor, including evaluation of ramp-up schedule and target dose of Compound 1 when used in combination with Zanubrutinib. The Compound 1 dose vary but the Zanubrutinib dose is fixed at 320 mg/day (160 mg twice daily or 320 mg once daily). The ramp-up dose increases weekly until the target dose for the cohort is reached. The ramp-up steps for Compound 1 are 1 mg, 2 mg, 5 mg, 10 mg, 20 mg, 40 mg, 80 mg, 160 mg, 320 mg, and 640 mg (unless adjusted by SMC recommendation).
In all Cohorts of the phase 1 study, Compound 1 is orally administrated once daily (QD). […]

[3] = 36 patients, monotherapy N = 25, combination therapy N = 11
[4] = 58 patients, monotherapy n = 32, combination n = 26

CC(C)c1ccccc1[C@@H]1CCCN1C1CC2(CCN(c3ccc(C(=O)NS(=O)(=O)c4ccc(NCC5CCC(C)(O)CC5)c([N+](=O)[O-])c4)c(Oc4cnc5[nH]ccc5c4)c3)CC2)C1 (stereo partly drawn) [Compound 1, 2-((1H-pyrrolo[2,3-b]pyridin-5-yl)oxy)-N-((4-((((1r,4r)-4-hydroxy-4-methylcyclohexyl)methyl)amino)-3-nitrophenyl)sulfonyl)-4-(2-((S)-2-(2-isopropylphenyl)pyrrolidin-1-yl)-7-azaspiro[3.5]nonan-7-yl)benzamide]
AEs, n (%): AEs leading to discontinuation of Compound 1 [1, 3]: 1 n (%) | AEs, n (%): AEs leading to dose reduction of Compound 1 [1, 3]: 0 n (%) | AEs, n (%): AEs leading to hold of Compound 1 [1, 3]: 4 n (%) | AEs, n (%): Grade ≥3 AEs [1, 3]: 11 n (%) | AEs, n (%): Serious AEs [1, 3]: 9 n (%) | AEs, n (%): Total [1, 3]: 22 n (%) | AEs, n (%): Leading to death ([1]; 36 patients, monotherapy N = 25, combination therapy N = 11, neither death related to study drug): 2 n (%) | Diarrhea, All Grade, n (%) [1, 4]: 8 n (%) | Diarrhea, Grade ≥3, n (%) [1, 4]: 0 n (%) | Fatigue, All Grade, n (%) [1, 4]: 8 n (%) | Fatigue, Grade ≥3, n (%) [1, 4]: 0 n (%) | Headache, All Grade, n (%) [1, 4]: 5 n (%) | Headache, Grade ≥3, n (%) [1, 4]: 0 n (%) | Nausea, All Grade, n (%) [1, 4]: 12 n (%) | Nausea, Grade ≥3, n (%) [1, 4]: 0 n (%) | DLTs ([1]; Cohort 1A NHL, monotherapy, 40-mg (n=3), 80-mg (n=4) and 320-mg (n=3) dose cohorts): no disease-limiting toxicities (DLTs) | DLTs ([1]; Cohort 1A NHL, monotherapy, 160-mg (n=3+1) dose cohort): one DLT of grade 3 febrile neutropenia | MTD ([1]; Cohort 1A NHL, monotherapy, all dose cohorts completed): no MTD reached through 640 mg | DLTs ([1]; Cohort 1B R/R CLL, monotherapy, 80 mg target dose level (n=4)): one DLT of grade 4 neutropenia | patients with grade ≥3 neutropenia ([1]; monotherapy): 5 patients | patients with neutropenia ([1]; monotherapy): 6 patients | Abdominal Pain, All Grade, n (%) ([1]; monotherapy n = 32): 4 n (%) | Abdominal Pain, Grade ≥3, n (%) ([1]; monotherapy n = 32): 2 n (%) | Constipation, All Grade, n (%) ([1]; monotherapy n = 32): 5 n (%) | Constipation, Grade ≥3, n (%) ([1]; monotherapy n = 32): 0 n (%) | Dizziness, All Grade, n (%) ([1]; monotherapy n = 32): 5 n (%) | Dizziness, Grade ≥3, n (%) ([1]; monotherapy n = 32): 0 n (%) | Fall, All Grade, n (%) ([1]; monotherapy n = 32): 5 n (%) | Fall, Grade ≥3, n (%) ([1]; monotherapy n = 32): 2 n (%) | Neutropenia, All Grade, n (%) ([1]; monotherapy n = 32): 8 n (%) | Neutropenia, Grade ≥3, n (%) ([1]; monotherapy n = 32): 6 n (%) | Oedema peripheral, All Grade, n (%) ([1]; monotherapy n = 32): 4 n (%) | Oedema peripheral, Grade ≥3, n (%) ([1]; monotherapy n = 32): 0 n (%) | Pyrexia, All Grade, n (%) ([1]; monotherapy n = 32): 6 n (%) | Pyrexia, Grade ≥3, n (%) ([1]; monotherapy n = 32): 1 n (%) | Thrombocytopenia, All Grade, n (%) ([1]; monotherapy n = 32): 4 n (%) | Thrombocytopenia, Grade ≥3, n (%) ([1]; monotherapy n = 32): 2 n (%) | Urinary tract infection, All Grade, n (%) ([1]; monotherapy n = 32): 4 n (%) | Urinary tract infection, Grade ≥3, n (%) ([1]; monotherapy n = 32): 0 n (%) | laboratory TLS ([1]; monotherapy, one high-risk patient with CLL, resolved with no intervention): < 2% | tolerable dose ([1]; result of 58 patients, monotherapy or in combination with Zanubrutinib, MTD not yet reached): ≤ 640 mg | early response in CLL ([2]; CLL/SLL monotherapy, 36-patient data, 80-mg dose level, del (17p) CLL): 1 of 4 patients with CLL reached first response assessment and achieved partial response | patients achieving a response ([2]; NHL, monotherapy, 36-patient data, about 5 months of treatment duration, including 1 CR): 2 patients | patients achieving partial response with lymphocytosis (PR-L) or better ([2]; monotherapy, R/R CLL/SLL, four of 6 patients, at either 80 or 160 mg): 67% | patients responded ([2]; monotherapy, R/R NHL, two of 20 patients, 1 PR at 160 mg and 1 CR at 320 mg): 10% | patients with minor response ([2]; monotherapy, R/R WM, one of 2 patients, at 80 mg): 50% | reduction in SPD from baseline ([2]; monotherapy, patients with R/R NHL): significant reduction in SPD form baseline were seen in most patients; also recorded: significant reduction in SPD from baseline were seen in most patients | reduction in absolute lymphocyte count (ALC) ([2]; patients with CLL during ramp-up, monotherapy and combination therapy, seen at dose levels as low as 1 mg): significant reduction in absolute lymphocyte count (ALC) was noted among all patients with CLL during ramp-up | blood MRD (minimal residual disease) negativity ([2]; patients with CLL, monotherapy or combination with Zanubrutinib): negativity was observed in 160 mg cohorts after 6 months treatment but not in 40 mg and 80 mg cohorts
